# Entries after “also recorded” stand apart in the source; their conditions may differ. Where two headings read alike, the source gives them in different places.
# What was measured:
# hDAT [1] = biological target: T1, hDAT (Homo sapiens, UniProt Q01959); test: Transporter binding, [3H]-WIN-35,428
# dopaminergic D2 receptor = dopaminergic D2 receptor (Homo sapiens, UniProt P14416); test: Receptor binding, [3H]-spiperone
# Source text: Table 3 Monoamine transporter and receptor binding affinities of pyrovalerone and NEH. | column: D2 / Receptor Binding / Ki ± SD [μM] / [^3H]-Spiperone
# hDAT [2] = biological target: T1, hDAT; test: Transporter-mediated monoamine efflux, [3H]-DA preloaded HEK293 cells; format: cell-based; set-up: expressed in transfected cells; host or cells: HEK293; conditions: 100 μM of drug, 15 min, HEK293 hDAT preloaded with [3H]-DA; data for some pyrovalerones adapted from [13]
# Procedure: Monoamine efflux was assessed using human embryonic kidney 293 (HEK293) cells (Invitrogen, Zug, Switzerland) stably transfected with the human norepinephrine (hNET), dopamine (hDAT), or serotonin (hSERT) uptake transporters. In summary, the cells were seeded in poly-D-lysine coated XF24 cell culture microplates (Seahorse Biosciences, North Billerica, MA, USA) and cultured overnight at a concentration of 100,000 cells per well.
# The cells were then exposed to Krebs–HEPES release buffer (85 μL/well) comprised of 130 mM NaCl, 1.3 mM KCl, 2.2 mM CaCl2, 1.2 mM MgSO4, 1.2 mM KH2PO4, 10 mM HEPES, and 10 mM D-glucose at a pH of 7.5, which also contained 10 nM radiolabelled neurotransmitter ([^3H]-5-HT for SERT, [^3H]-DA for DAT or [^3H]-NE for NET), 1 μM unlabelled neurotransmitter (DA or NE, only), 10 μM pargyline, and 0.2 mg/mL of ascorbic acid. This enabled the loading of the cells with their respective neurotransmitters via the uptake transporters. Afterwards, the release buffer was replaced by fresh buffer to wash the cells twice and the cells were then incubated for 15 min (DAT and SERT) or 45 min (NET) to 100 μM of test drugs dissolved in 1 mL of Krebs–HEPES buffer while shaking at 300 rpm and 37 °C. Termination of the release reaction occurred by removing the buffer from the cells and washing them with ice-cold buffer. Next, 50 μL of lysis buffer was added to the cells for 1 h in order to lyse the cells. Thereafter, 40 μL of the lysed cell mixture was transferred into scintillation vials (Perkin–Elmer, Schwerzenbach, Switzerland) containing 3 mL of scintillation fluid (Ultimagold, Perkin–Elmer, Schwerzenbach, Switzerland) and measured using liquid scintillation (as previously described in Section 2.2).
# To quantify the “pseudo efflux” caused by the non-transporter mediated monoamine release and successive reuptake inhibition, each monoamine efflux experiment included a control where the cells were exposed to each respective transporter blocker (nisoxetine for NET, mazindol for DAT, and citalopram for SERT). The radioactivity inside the cells without any drug was set as 100%. The nonspecific release was subtracted from the total observed release at 100 μM of each examined drug to calculate the specific transporter mediated release. One single concentration of the test drugs was used (100 μM) and release exposure durations were set based on previously evaluated kinetics of the release-over-time curves.
# An ANOVA followed by a Holm–Sidak test was conducted to compare each drug’s specific transporter-mediated efflux based on at least three independent experiments to the control condition.
# adrenergic α2A receptor [3] = biological target: T2, adrenergic α2A receptor (Homo sapiens, UniProt P08913); test: Receptor binding, [3H]-rauwolscine
# T2 sequence (P08913 1-465): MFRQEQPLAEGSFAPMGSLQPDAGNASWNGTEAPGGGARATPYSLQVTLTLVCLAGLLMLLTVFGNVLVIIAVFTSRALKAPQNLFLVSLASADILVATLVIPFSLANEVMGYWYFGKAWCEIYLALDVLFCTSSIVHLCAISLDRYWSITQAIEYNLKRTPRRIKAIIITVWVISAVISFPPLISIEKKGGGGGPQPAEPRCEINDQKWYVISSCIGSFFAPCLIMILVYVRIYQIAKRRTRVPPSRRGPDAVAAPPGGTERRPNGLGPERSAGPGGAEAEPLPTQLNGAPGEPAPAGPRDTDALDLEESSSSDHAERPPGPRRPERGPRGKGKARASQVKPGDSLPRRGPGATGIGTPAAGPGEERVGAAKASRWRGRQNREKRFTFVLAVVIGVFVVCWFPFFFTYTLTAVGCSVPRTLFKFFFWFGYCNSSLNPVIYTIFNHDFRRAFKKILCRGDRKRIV
# Source text: Table 3 Monoamine transporter and receptor binding affinities of pyrovalerone and NEH. | column: α2A / Receptor Binding / Ki ± SD [μM] / [^3H]-Rauwolscine
# hSERT = hSERT (Homo sapiens, UniProt P31645); test: Transporter binding, [3H]-citalopram
# Chain of hSERT (P31645 whole entry): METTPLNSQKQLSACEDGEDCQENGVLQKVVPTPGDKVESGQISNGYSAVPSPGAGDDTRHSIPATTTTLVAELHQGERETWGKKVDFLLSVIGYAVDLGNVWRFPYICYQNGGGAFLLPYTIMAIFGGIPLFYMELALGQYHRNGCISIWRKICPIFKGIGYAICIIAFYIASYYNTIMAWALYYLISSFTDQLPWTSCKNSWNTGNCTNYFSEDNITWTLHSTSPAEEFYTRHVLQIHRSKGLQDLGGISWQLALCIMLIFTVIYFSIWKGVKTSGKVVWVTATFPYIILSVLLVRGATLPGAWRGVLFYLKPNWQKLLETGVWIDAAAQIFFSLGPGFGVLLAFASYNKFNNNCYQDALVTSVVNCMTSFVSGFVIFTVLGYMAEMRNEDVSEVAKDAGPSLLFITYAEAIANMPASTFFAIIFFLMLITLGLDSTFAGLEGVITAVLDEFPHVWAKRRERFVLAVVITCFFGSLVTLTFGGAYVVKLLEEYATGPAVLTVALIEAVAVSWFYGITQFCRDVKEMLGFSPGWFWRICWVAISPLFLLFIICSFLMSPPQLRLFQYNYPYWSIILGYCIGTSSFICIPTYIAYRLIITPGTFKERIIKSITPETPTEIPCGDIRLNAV
# hNET = hNET (Homo sapiens, UniProt P23975); test: Transporter binding, N-methyl-[3H]-nisoxetine
# Chain of hNET (P23975 whole entry): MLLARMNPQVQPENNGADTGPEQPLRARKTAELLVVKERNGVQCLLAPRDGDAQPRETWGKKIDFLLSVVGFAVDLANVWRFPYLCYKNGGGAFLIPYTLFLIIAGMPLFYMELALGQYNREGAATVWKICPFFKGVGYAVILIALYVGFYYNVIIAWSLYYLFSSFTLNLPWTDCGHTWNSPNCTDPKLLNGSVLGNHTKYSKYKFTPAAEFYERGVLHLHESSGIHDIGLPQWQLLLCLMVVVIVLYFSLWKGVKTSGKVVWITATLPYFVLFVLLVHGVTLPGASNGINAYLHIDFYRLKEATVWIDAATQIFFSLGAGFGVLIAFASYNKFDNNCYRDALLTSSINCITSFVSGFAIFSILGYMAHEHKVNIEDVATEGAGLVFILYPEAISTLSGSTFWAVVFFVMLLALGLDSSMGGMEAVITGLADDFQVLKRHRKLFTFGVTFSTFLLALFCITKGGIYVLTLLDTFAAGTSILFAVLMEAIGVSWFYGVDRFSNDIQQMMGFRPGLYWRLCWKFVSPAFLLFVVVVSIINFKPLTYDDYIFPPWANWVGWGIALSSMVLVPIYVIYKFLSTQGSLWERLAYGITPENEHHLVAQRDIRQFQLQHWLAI
# Source text: Table 3 Monoamine transporter and receptor binding affinities of pyrovalerone and NEH. | column: hNET / Receptor Binding / Ki ± SD [μM] / N-Methyl-[^3H]-nisoxetine
# adrenergic α1A receptor = biological target: T3, adrenergic α1A receptor (Homo sapiens, UniProt P35348); test: Receptor binding, [3H]-prazosin
# T3 sequence (P35348 1-466): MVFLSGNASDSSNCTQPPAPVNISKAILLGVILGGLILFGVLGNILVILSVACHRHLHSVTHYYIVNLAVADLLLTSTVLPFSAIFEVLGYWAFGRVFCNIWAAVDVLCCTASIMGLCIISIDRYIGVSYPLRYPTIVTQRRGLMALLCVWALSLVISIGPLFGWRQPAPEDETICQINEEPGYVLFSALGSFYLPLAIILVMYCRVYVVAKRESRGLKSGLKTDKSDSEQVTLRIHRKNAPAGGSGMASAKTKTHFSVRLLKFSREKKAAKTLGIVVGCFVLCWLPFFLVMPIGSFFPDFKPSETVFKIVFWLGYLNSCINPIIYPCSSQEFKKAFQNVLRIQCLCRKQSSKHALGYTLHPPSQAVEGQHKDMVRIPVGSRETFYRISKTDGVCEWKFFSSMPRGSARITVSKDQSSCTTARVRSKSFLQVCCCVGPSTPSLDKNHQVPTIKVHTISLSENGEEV
# adrenergic α2A receptor [4] = biological target: T2, adrenergic α2A receptor; conditions: [3H]-Rauwolscine, cited from earlier work; for Ki: read-out: α2A Receptor Binding Ki ± SD
# Human TAAR1 = test system: Human TAAR1; set-up: method as in Simmler et al. (2016); conditions: ref Simmler et al. (2016); read-out: Human TAAR1 Activation Potency EC50 ± SD; cited from earlier work
# h5-HT2A receptor = h5-HT2A receptor (Homo sapiens, UniProt P28223); set-up: expressed in transfected cells; host or cells: HEK293 cell preparations; method as in Rickli et al. (2015); conditions: read-out: h5-HT2A Activation Potency EC50 ± SD; ref Rickli et al. (2015); cited from earlier work
# Chain of h5-HT2A receptor (P28223 whole entry): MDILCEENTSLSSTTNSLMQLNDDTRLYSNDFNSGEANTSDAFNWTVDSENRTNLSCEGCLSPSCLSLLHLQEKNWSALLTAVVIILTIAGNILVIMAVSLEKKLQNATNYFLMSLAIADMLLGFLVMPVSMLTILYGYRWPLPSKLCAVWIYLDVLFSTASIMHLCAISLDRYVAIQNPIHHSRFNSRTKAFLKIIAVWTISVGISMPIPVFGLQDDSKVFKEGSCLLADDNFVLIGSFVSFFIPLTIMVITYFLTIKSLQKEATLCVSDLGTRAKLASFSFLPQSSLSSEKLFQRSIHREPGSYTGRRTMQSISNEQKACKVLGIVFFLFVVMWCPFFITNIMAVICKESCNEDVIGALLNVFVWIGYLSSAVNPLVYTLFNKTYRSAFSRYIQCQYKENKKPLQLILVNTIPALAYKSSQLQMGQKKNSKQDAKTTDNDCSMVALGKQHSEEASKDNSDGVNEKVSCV
# T1 sequence (Q01959 whole entry): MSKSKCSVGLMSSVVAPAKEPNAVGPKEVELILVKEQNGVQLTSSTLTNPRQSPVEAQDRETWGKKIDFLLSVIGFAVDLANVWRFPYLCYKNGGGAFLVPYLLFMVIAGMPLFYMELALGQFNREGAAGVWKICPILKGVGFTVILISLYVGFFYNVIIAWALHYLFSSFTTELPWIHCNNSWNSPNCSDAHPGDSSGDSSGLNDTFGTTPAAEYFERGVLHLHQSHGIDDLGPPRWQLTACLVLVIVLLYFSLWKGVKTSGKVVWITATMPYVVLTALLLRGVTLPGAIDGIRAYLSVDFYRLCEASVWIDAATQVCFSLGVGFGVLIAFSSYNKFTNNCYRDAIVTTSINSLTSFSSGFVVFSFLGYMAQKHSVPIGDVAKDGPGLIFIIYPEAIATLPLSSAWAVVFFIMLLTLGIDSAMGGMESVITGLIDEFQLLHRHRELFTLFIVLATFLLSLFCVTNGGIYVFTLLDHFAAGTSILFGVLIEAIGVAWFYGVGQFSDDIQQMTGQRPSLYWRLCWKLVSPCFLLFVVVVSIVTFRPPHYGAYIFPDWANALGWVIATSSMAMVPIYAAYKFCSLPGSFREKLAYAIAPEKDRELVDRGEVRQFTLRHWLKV
# Chain of dopaminergic D2 receptor (P14416 whole entry): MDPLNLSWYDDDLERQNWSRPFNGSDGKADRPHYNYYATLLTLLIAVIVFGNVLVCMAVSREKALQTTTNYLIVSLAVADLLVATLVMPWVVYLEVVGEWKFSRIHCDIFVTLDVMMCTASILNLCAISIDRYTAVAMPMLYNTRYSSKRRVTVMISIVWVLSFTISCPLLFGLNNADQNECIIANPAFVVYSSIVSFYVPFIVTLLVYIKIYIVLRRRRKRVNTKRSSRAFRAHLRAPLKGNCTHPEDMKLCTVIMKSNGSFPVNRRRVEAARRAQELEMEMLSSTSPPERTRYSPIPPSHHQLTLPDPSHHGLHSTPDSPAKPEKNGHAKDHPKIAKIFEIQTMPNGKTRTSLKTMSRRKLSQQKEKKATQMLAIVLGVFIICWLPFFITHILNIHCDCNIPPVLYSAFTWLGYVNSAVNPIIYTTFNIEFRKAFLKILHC
smiles,measurement,setting,value
"Cc1ccc(C(=O)C(C)N2CCCC2)cc1 (stereo not drawn) [4-MePPP, 4-methyl-α-pyrrolidinopropiophenone]",Ki,hDAT [1],0.3 ± 0.02 µM
same,Ki,dopaminergic D2 receptor,> 13 µM
same,Transporter-mediated monoamine efflux (DA) vs mazindol,hDAT [2],no monoamine efflux was observed
same,Ki,adrenergic α2A receptor [3],> 4.7 µM
same,Ki,hSERT,> 7.4 µM
same,Ki,hNET,2.5 ± 0.7 µM
same,Ki,adrenergic α1A receptor,2.2 ± 0.1 µM
"CCC(C(=O)c1ccc(F)cc1)N1CCCC1 (stereo not drawn) [4F-PBP, 4-fluoro-α-pyrrolidinobutiophenone]",Transporter-mediated monoamine efflux (DA) vs mazindol,hDAT [2],did not induce any monoamine efflux
"CNC(C)Cc1ccc2c(c1)OCO2 (stereo not shown) [MDMA, 3,4-methylenedioxymethamphetamine, reference compound]",Ki,"adrenergic α2A receptor [4]; ref Luethi, Kolaczynska et al. (2019)",4.6 ± 1.1 µM
same,EC50,Human TAAR1,35 ± 21 µM
same,Transporter-mediated monoamine efflux (DA) vs mazindol,hDAT [2],causes significant release at the transporters
same,EC50,h5-HT2A receptor,6.1 ± 0.3 µM
"CCC(C(=O)c1ccc2c(c1)OCO2)N1CCCC1 (stereo not drawn) [MDPBP, 3,4-methylenedioxy-α-pyrrolidinobutiophenone]",α2A Receptor Binding Ki ± SD,adrenergic α2A receptor [4]; ref Rickli et al. (2015),bound the receptor in the low micromolar range
same,Ki,adrenergic α2A receptor [4]; ref Rickli et al. (2015),9.4 ± 1.6 µM
"CC(C(=O)c1ccc2c(c1)OCO2)N1CCCC1 (stereo not drawn) [MDPPP, 3,4-methylenedioxy-α-pyrrolidinopropiophenone]",α2A Receptor Binding Ki ± SD,adrenergic α2A receptor [4]; ref Rickli et al. (2015),bound the receptor in the low micromolar range
same,Ki,adrenergic α2A receptor [4]; ref Rickli et al. (2015),14 ± 0.9 µM
"CCCC(C(=O)c1ccc2c(c1)OCO2)N1CCCC1 (stereo not shown) [MDPV, 3,4-methylenedioxypyrovalerone]",Ki,adrenergic α2A receptor [4]; ref Simmler et al. (2013),> 20 µM
same,EC50,Human TAAR1,> 30 µM
"CCCCC(C(=O)c1ccc(C)cc1)N1CCCC1 (stereo not drawn) [MPHP, 4-methyl-α-pyrrolidinohexanophenone]",Transporter-mediated monoamine efflux (DA) vs mazindol,hDAT [2],no monoamine efflux was observed
"CCCCC(NCC)C(=O)c1ccccc1 (stereo not shown) [NEH, N-ethylamine-hexanophenone]",Transporter-mediated monoamine efflux (DA) vs mazindol,hDAT [2],did not produce any monoamine efflux; also recorded: did not induce any monoamine efflux
"CCCC(C(=O)c1ccc(C)cc1)N1CCCC1 (stereo not shown) [Pyrovalerone, pyrovalerone]",Ki,adrenergic α2A receptor [4]; ref Simmler et al. (2013),> 20 µM
"CCCCC(C(=O)c1ccccc1)N1CCCC1 (stereo not drawn) [α-PHP, α-pyrrolidinohexanophenone]",Transporter-mediated monoamine efflux (DA) vs mazindol,hDAT [2],did not induce any monoamine efflux
"CC(C(=O)c1ccccc1)N1CCCC1 (stereo not drawn) [α-PPP, α-pyrrolidinopropiophenone]",Transporter-mediated monoamine efflux (DA) vs mazindol,hDAT [2],did not induce any monoamine efflux
"CCCC(C(=O)c1ccccc1)N1CCCC1 (stereo not drawn) [α-PVP, α-pyrrolidinopentiophenone]",Ki,adrenergic α2A receptor [4]; ref Rickli et al. (2015),> 20 µM
same,Transporter-mediated monoamine efflux (DA) vs mazindol,hDAT [2],did not induce any monoamine efflux
